Experimental data published in patent US7138361B2, “Herbicidal heterocycles” (E. I. du Pont de Nemours and Company, priority 2000, dated 2006).

Tests used:
Format in all cases: in vivo
[1] = tested on: barnyardgrass (Echinochloa crus-galli); assay: Test C flooded paddy test; settings: for Barnyardgrass plant response rating: scale 0 to 100, 0 no effect, 100 complete control
Experimental: (§1) At the same time, plants selected from these crop and weed species and also winter barley (Hordeum vulgare), blackgrass (Alopecurus myosuroides), canary grass (Phalaris minor), chickweed (Stellaria media), downy brome (Bromus tectorum), green foxtail (Setaria viridis), Italian ryegrass (Lolium multiflorum), wheat (Triticum aestivum), wild oat (Avena fatua) and windgrass (Apera spica-venti) were treated with postemergence applications of some of the test chemicals formulated in the same manner. Plants ranged in height from 2 to 18 cm (1- to 4-leaf stage) for postemergence treatments. Plant species in the flooded paddy test consisted of rice (Oryza saliva), smallflower flatsedge (Cyperus difformis), duck salad (Heteranthera limosa) and barnyardgrass (Echinochloa crus-galli) grown to the 2-leaf stage for testing. Treated plants and controls were maintained in a greenhouse for 12 to 14 days, after which time all species were compared to controls and visually evaluated. Plant response ratings, summarized in Table C, are based on a scale of 0 to 100 where 0 is no effect and 100 is complete control. A dash (-) response means no test result.

[2] = tested on: duck salad (Heteranthera limosa); assay: Test C flooded paddy test; settings: for Ducksalad plant response rating: scale 0 to 100, 0 no effect, 100 complete control
Experimental: as §1

[3] = tested on: rice (Oryza saliva); assay: Test C flooded paddy test; settings: for Rice plant response rating: scale 0 to 100, 0 no effect, 100 complete control
Experimental: as §1

[4] = tested on: smallflower flatsedge (Cyperus difformis); assay: Test C flooded paddy test; settings: for Flatsedge plant response rating: Flooded Paddy, scale 0 to 100, 0 no effect, 100 complete control; for Plant response rating, Flatsedge: scale 0 to 100 (0 no effect, 100 complete control)
Experimental: as §1

[5] = tested on: Surinam grass (Brachiaria decumbens); assay: Test B postemergence; settings: 13 to 15 days
Description: (§2) Seeds selected from barnyardgrass (Echinochloa crus-galli), Surinam grass (Brachiaria decumbens), cocklebur (Xanthium strumarium), corn (Zea mays), crabgrass (Digitaria sanguinalis), giant foxtail (Setaria faberii), lambsquarters (Chenopodium album), morning glory (Ipomoea hederacea), pigweed (Amaranthus retroflexus), rice (Oryza saliva) and velvetleaf (Abutilon theophrasti) were planted and treated preemergence with test chemicals formulated in a non-phytotoxic solvent mixture which included a surfactant.
(§3) At the same time, plants selected from these crop and weed species and also blackgrass (Alopecurus myosuroides), wheat (Triticum aestivum) and wild oat (Avena fatua) were treated with postemergence applications of test chemicals formulated in the same manner. Plants ranged in height from 2 to 18 cm (1- to 4-leaf stage) for postemergence treatments. Plant species in the flooded paddy test consisted of rice (Oryza saliva), smallflower flatsedge (Cyperus difformis), duck salad (Heteranthera limosa) and barnyardgrass (Echinochloa crus-galli) grown to the 2-leaf stage for testing. Treated plants and controls were maintained in a greenhouse for 13 to 15 days, after which time all species were compared to controls and visually evaluated. Plant response ratings, summarized in Table B, are based on a scale of 0 to 100 where 0 is no effect and 100 is complete control. A dash (-) response means no test result.

[6] = tested on: barnyardgrass (Echinochloa crus-galli); assay: Test B postemergence; settings: 13 to 15 days
Description: as §2, §3

[7] = tested on: blackgrass (Alopecurus myosuroides); assay: Test B postemergence; settings: 13 to 15 days
Description: as §2, §3

[8] = tested on: corn (Zea mays); assay: Test B postemergence; settings: 13 to 15 days
Description: as §2, §3

[9] = tested on: crabgrass (Digitaria sanguinalis); assay: Test B postemergence; settings: 13 to 15 days
Description: as §2, §3

[10] = tested on: giant foxtail (Setaria faberii); assay: Test B postemergence; settings: 13 to 15 days
Description: as §2, §3

[11] = tested on: lambsquarters (Chenopodium album); assay: Test B postemergence; settings: Rate 500 g/ha, scale 0 to 100, 0 is no effect, 100 is complete control, 13 to 15 days
Description: as §2, §3

[12] = tested on: morning glory (Ipomoea hederacea); assay: Test B postemergence; settings: Rate 500 g/ha, scale 0 to 100, 0 is no effect, 100 is complete control, 13 to 15 days
Description: as §2, §3

[13] = tested on: pigweed (Amaranthus retroflexus); assay: Test B postemergence; settings: Rate 500 g/ha, scale 0 to 100, 0 is no effect, 100 is complete control, 13 to 15 days
Description: as §2, §3

[14] = tested on: velvetleaf (Abutilon theophrasti); assay: Test B postemergence; settings: Rate 500 g/ha, scale 0 to 100, 0 is no effect, 100 is complete control, 13 to 15 days
Description: as §2, §3

[15] = tested on: wheat (Triticum aestivum); assay: Test B postemergence; settings: Rate 500 g/ha, scale 0 to 100, 0 is no effect, 100 is complete control, 13 to 15 days
Description: as §2, §3

[16] = tested on: wild oat (Avena fatua); assay: Test B postemergence; settings: Rate 500 g/ha, scale 0 to 100, 0 is no effect, 100 is complete control, 13 to 15 days
Description: as §2, §3

[17] = tested on: Surinam grass (Brachiaria decumbens); assay: Test B preemergence
Description: as §2, §3

[18] = tested on: barnyardgrass (Echinochloa crus-galli); assay: Test B preemergence
Description: as §2, §3

[19] = tested on: cocklebur (Xanthium strumarium); assay: Test B preemergence
Description: as §2, §3

[20] = tested on: corn (Zea mays); assay: Test B preemergence
Description: as §2, §3

[21] = tested on: crabgrass (Digitaria sanguinalis); assay: Test B preemergence
Description: as §2, §3

[22] = tested on: giant foxtail (Setaria faberii); assay: Test B preemergence
Description: as §2, §3

[23] = tested on: lambsquarters (Chenopodium album); assay: Test B preemergence
Description: as §2, §3

[24] = tested on: morning glory (Ipomoea hederacea); assay: Test B preemergence
Description: as §2, §3

[25] = tested on: pigweed (Amaranthus retroflexus); assay: Test B preemergence
Description: as §2, §3

[26] = tested on: rice (Oryza saliva); assay: Test B preemergence
Description: as §2, §3

[27] = tested on: velvetleaf (Abutilon theophrasti); assay: Test B preemergence
Description: as §2, §3

[28] = Flooded Paddy, Rate 1000 g/ha, scale 0 to 100
[29] = flooded paddy test, Rate 125 g/ha, scale 0 to 100 (0 no effect, 100 complete control)
[30] = flooded paddy test, Rate 250 g/ha, scale 0 to 100 (0 no effect, 100 complete control)
[31] = flooded paddy test, Rate 62 g/ha, visually evaluated after 12 to 14 days, 0 = no effect, 100 = complete control
[32] = flooded paddy test, Rate 125 g/ha
[33] = Rate 125 g/ha, scale 0 (no effect) to 100 (complete control)
[34] = Rate 500 g/ha, scale 0 to 100, 0 is no effect, 100 is complete control
[35] = Preemergence, Rate 500 g/ha, scale 0 to 100, 0 no effect, 100 complete control
[36] = preemergence, Rate 125 g/ha, scale of 0 to 100 where 0 is no effect and 100 is complete control, 13 to 15 days
[37] = flooded paddy test, Rate 62 g/ha, scale 0 to 100 (0 no effect, 100 complete control)
[38] = flooded paddy test, Rate 62 g/ha

CC(C)(C)C1=NN(C2CCN(c3cccc(C(F)(F)F)c3)C2=O)CC1 (stereo not drawn) [Compound 135]
Plant response rating, Barnyardgrass [1, 28]: 30
Barnyardgrass plant response rating ([1]; Flooded Paddy, Rate 500 g/ha): 20
Plant response rating, Barnyardgrass [1, 29]: 0
Plant response rating, Barnyardgrass [1, 30]: 0
Plant response rating (scale 0 to 100), Barnyardgrass [1, 31]: 0
Plant response rating, Ducksalad [2, 28]: 30
Ducksalad plant response rating ([2]; Flooded Paddy, Rate 500 g/ha): 0
Plant response rating, Ducksalad [2, 29]: 0
Plant response rating, Ducksalad [2, 30]: 0
Plant response rating (scale 0 to 100), Ducksalad [2, 31]: 0
Plant response rating, Rice [3, 28]: 0
Rice plant response rating ([3]; Flooded Paddy, Rate 500 g/ha): 0
Plant response rating, Rice [3, 29]: 0
Plant response rating, Rice [3, 30]: 0
Plant response rating (scale 0 to 100), Rice [3, 31]: 0
Flatsedge plant response rating ([4]; Rate 500 g/ha): 90
Flatsedge plant response rating ([4]; rate of this column group stands in head line r653, not shown (group before Rate 500 g/ha)): 100
Plant response rating, Flatsedge [4, 32]: 20
Plant response rating, Flatsedge ([4]; flooded paddy test, Rate 250 g/ha): 90
Plant response rating (scale 0 to 100), Flatsedge [4, 31]: 0

CC(C)(C)c1ccn(C2CCN(c3cccc(C#N)c3)C2=O)n1 (stereo not drawn) [Compound 104]
Plant response rating, Surinam grass [5, 33]: 0
Plant response rating, Surinam grass [5, 34]: 0
Plant response rating, Barnyardgrass [6, 33]: 0
Plant response rating, Barnyardgrass [6, 34]: 0
Plant response rating, Blackgrass [7, 33]: 0
Plant response rating, Blackgrass [7, 34]: 0
Plant response rating, Corn [8, 33]: 0
Plant response rating, Corn [8, 34]: 0
Plant response rating, Crabgrass [9, 33]: 0
Plant response rating, Crabgrass [9, 34]: 0
Plant response rating, Foxtail, Giant [10, 33]: 0
Plant response rating, Foxtail, Giant [10, 34]: 0
Plant response rating, Lambsquarters [11]: 0
Plant response rating, Morningglory [12]: 0
Plant response rating, Pigweed [13]: 0
Plant response rating, Velvetleaf [14]: 0
Plant response rating, Wheat [15]: 0
Plant response rating, Wild Oat [16]: 0
Plant response rating, Surinam grass [17, 35]: 0
Plant response rating, Surinam grass [17, 36]: 0
Plant response rating, Barnyardgrass [18, 35]: 0
Plant response rating, Barnyardgrass [18, 36]: 0
Plant response rating, Cocklebur [19, 35]: 0
Plant response rating, Cocklebur [19, 36]: 0
Plant response rating, Corn [20, 35]: 0
Plant response rating, Corn [20, 36]: 0
Plant response rating, Crabgrass [21, 35]: 0
Plant response rating, Crabgrass [21, 36]: 0
Plant response rating, Foxtail, Giant [22, 35]: 0
Plant response rating, Foxtail, Giant [22, 36]: 0
Plant response rating, Lambsquarters [23, 35]: 100
Plant response rating, Lambsquarters [23, 36]: 100
Plant response rating, Morningglory [24, 35]: 0
Plant response rating, Morningglory [24, 36]: 0
Plant response rating, Pigweed [25, 35]: 100
Plant response rating, Pigweed [25, 36]: 70
Plant response rating, Rice [26, 35]: 0
Plant response rating, Rice [26, 36]: 0
Plant response rating, Velvetleaf [27, 35]: 0
Plant response rating, Velvetleaf [27, 36]: 0
Barnyardgrass plant response rating ([1]; Flooded Paddy, Rate 250 g/ha): 0
Barnyardgrass plant response rating ([1]; Flooded Paddy, Rate 500 g/ha): 0
Plant response rating, Barnyardgrass [1, 37]: 0
Plant response rating, Barnyardgrass [1, 29]: 0
Ducksalad plant response rating ([2]; Flooded Paddy, Rate 250 g/ha): 0
Ducksalad plant response rating ([2]; Flooded Paddy, Rate 500 g/ha): 0
Plant response rating, Ducksalad [2, 37]: 0
Plant response rating, Ducksalad [2, 29]: 0
Rice plant response rating ([3]; Flooded Paddy, Rate 250 g/ha): 0
Rice plant response rating ([3]; Flooded Paddy, Rate 500 g/ha): 0
Plant response rating, Rice [3, 37]: 0
Plant response rating, Rice [3, 29]: 0
Flatsedge plant response rating ([4]; Rate 250 g/ha): 0
Flatsedge plant response rating ([4]; Rate 500 g/ha): 0
Plant response rating, Flatsedge [4, 38]: 0
Plant response rating, Flatsedge [4, 32]: 0

CCCCC(C)c1ccn(C2OCN(c3cccc(OC(F)(F)F)c3)C2=O)n1 (stereo not drawn) [Compound 97]
Plant response rating, Surinam grass [5, 33]: 0
Plant response rating, Barnyardgrass [6, 33]: 0
Plant response rating, Blackgrass [7, 33]: 0
Plant response rating, Corn [8, 33]: 0
Plant response rating, Crabgrass [9, 33]: 0
Plant response rating, Foxtail, Giant [10, 33]: 0
Plant response rating, Surinam grass [17, 36]: 0
Plant response rating, Barnyardgrass [18, 36]: 30
Plant response rating, Cocklebur [19, 36]: 0
Plant response rating, Corn [20, 36]: 0
Plant response rating, Crabgrass [21, 36]: 20
Plant response rating, Foxtail, Giant [22, 36]: 20
Plant response rating, Lambsquarters [23, 36]: 20
Plant response rating, Morningglory [24, 36]: 0
Plant response rating, Pigweed [25, 36]: 0
Plant response rating, Rice [26, 36]: 0
Plant response rating, Velvetleaf [27, 36]: 0
Barnyardgrass plant response rating ([1]; Flooded Paddy, Rate 500 g/ha): 100
Plant response rating, Barnyardgrass [1, 37]: 0
Plant response rating, Barnyardgrass [1, 29]: 40
Ducksalad plant response rating ([2]; Flooded Paddy, Rate 500 g/ha): 0
Plant response rating, Ducksalad [2, 37]: 0
Plant response rating, Ducksalad [2, 29]: 0
Rice plant response rating ([3]; Flooded Paddy, Rate 500 g/ha): 20
Plant response rating, Rice [3, 37]: 0
Plant response rating, Rice [3, 29]: 20
Flatsedge plant response rating ([4]; Rate 500 g/ha): 90
Plant response rating, Flatsedge [4, 38]: 30
Plant response rating, Flatsedge [4, 32]: 90
